This assay relates to pancreatic cancer PANG-1 cell line. Description: Fluorescence microscopy study of etoposide-induced senescence and anti-AGE antibody staining. It is filed as cell-based. Conditions: 12.5 μM for 24 hours. Here is the method:
Cells from the pancreatic cancer PANG-1 cell line were treated with 12.5 μM etoposide, a chemotherapeutic agent, for 24 hours to induce senescence. Control cells were treated with dimethyl sulfoxide (DMSO) vehicle for 24 hours. The cells were then stained with a senescence β-galactosidase staining kit, an anti-AGE antibody conjugated to green fluorescent protein (GFP) or an anti-AGE antibody conjugated to GFP and 4′,6-diamidino-2-phenylindole (DAPI). GFP-stained cells appear green and DAPI-stained cells appear blue under fluorescence microscopy.
FIG. 2A illustrates the untreated cells after staining with the senescence β-galactosidase staining kit. FIG. 2B illustrates the untreated cells after staining with the anti-AGE antibody conjugated to GFP. FIG. 2C illustrates the untreated cells after staining with the anti-AGE antibody conjugated to GFP-DAPI. FIGS. 2B and 2C have been brightened to enhance contrast. The untreated cells appear relatively uniform in size and shape and are densely packed.
FIG. 2D illustrates the etoposide-treated cells after staining with the senescence β-galactosidase staining kit. FIG. 2E illustrates the etoposide-treated cells after staining with the anti-AGE antibody conjugated to GFP. FIG. 2F illustrates the etoposide-treated cells after staining with the anti-AGE antibody conjugated to GFP-DAPI. FIGS. 2E and 2F have been brightened to enhance contrast.

Structures are written as SMILES.

With `COc1cc([C@@H]2c3cc4c(cc3[C@@H](O[C@@H]3O[C@@H]5CO[C@@H](C)O[C@H]5[C@H](O)[C@H]3O)[C@H]3COC(=O)[C@H]23)OCO4)cc(OC)c1O` [etoposide], the “Appearance of treated cells (senescence)” value is “irregular appearance, are larger in size and are loosely packed”.

The values above are taken from patent US20220175916A1, “METHODS AND COMPOSITIONS FOR TREATING CHRONIC EFFECTS OF RADIATION AND CHEMICAL EXPOSURE” (priority 2018, published 2022).
